Experiments:
[1] = biological target: recombinant full-length human hydroxyacid oxidase 1 (HAO1), the equivalents of hGOX (Homo sapiens (Human), UniProt Q9UJM8); assay: In-vitro human glycolate oxidase (hGOX) assay (Amplex red fluorescence); format: biochemical; settings: 6 nM recombinant human GO, 85 μM glycolate, 10 min preincubation
Outline: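 Activity was read as Amplex Red fluorescence (560/590 nm), with 50 μM reagent added after a 10 min room-temperature incubation. The enzyme, full-length human HAO1, was in pH 7.4 HEPES buffer containing KCl, NaCl, MgCl2 and 0.01% Triton X-100.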

[2] = In-vivo pharmacokinetic evaluation (exposure, AUC fold-over Example 1); settings: male CD-1 mice, 10 mg/kg oral gavage in 20% (2-Hydroxypropyl)-β-cyclodextrin, plasma at 0.5, 2 and 6 hours post-dose; AUC expressed as fold-over Example 1
Experimental: In-vivo exposure of test compounds was determined in 5-6 week old male CD-1 mice. Mice (n=2/compound) received 10 mg/kg of each compound formulated in 20% (2-Hydroxypropyl)-β-cyclodextrin (10 μL/g) by oral gavage. At 0.5 hours, 2 hours, and 6 hours post-dose, blood samples were collected from the submandibular vein using EDTA as an anticoagulant and stored on ice. Plasma samples were obtained by centrifugation at 4° C. and were analyzed immediately or stored at −20° C. until analysis. Compounds were extracted from mouse plasma with acetonitrile and quantified by LC-MS-MS in the negative ion mode using a standard curve.

Sequence of recombinant full-length human hydroxyacid oxidase 1 (HAO1), the equivalents of hGOX (Q9UJM8 whole entry): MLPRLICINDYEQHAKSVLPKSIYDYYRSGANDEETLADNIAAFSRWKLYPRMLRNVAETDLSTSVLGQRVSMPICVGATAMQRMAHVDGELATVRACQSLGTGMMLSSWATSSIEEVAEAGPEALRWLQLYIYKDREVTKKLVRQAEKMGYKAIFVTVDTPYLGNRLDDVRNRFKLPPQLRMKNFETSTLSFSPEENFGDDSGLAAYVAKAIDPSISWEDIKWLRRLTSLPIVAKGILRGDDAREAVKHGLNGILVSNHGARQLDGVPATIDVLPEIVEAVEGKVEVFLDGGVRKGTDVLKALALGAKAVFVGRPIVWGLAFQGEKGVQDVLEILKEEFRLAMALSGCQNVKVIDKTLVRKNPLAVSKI

Compound | IC50 [1] [nM] | AUC Fold over Ex. 1 [2]
CCCC#Cc1ccc(Oc2[nH]nnc2C(=O)O)cc1 [Example 299, 5-(4-(Pent-1-ynyl)phenoxy)-1H-1,2,3-triazole-4-carboxylic Acid] | 15 | 0.9
O=C(O)c1nn[nH]c1Oc1ccc(C#CCC(F)(F)F)cc1 [Example 305, 5-(4-(4,4,4-Trifluorobut-1-ynyl)phenoxy)-1H-1,2,3-triazole-4-carboxylic Acid] | 18 | 0.3
CCC#Cc1cccc(Oc2[nH]nnc2C(=O)O)c1 [Example 304, 5-(3-(But-1-ynyl)phenoxy)-1H-1,2,3-triazole-4-carboxylic Acid] | 12 | 1.6
O=C(O)c1nn[nH]c1Oc1ccc(C#CCC2CC2)cc1 [Example 301, 5-(4-(3-Cyclopropylprop-1-ynyl)phenoxy)-1H-1,2,3-triazole-4-carboxylic Acid] | 15 | 0.7
Cn1cc(C#Cc2cccc(Oc3[nH]nnc3C(=O)O)c2)cn1 [Example 221, 5-(3-(2-(1-Methyl-1H-pyrazol-4-yl)ethynyl)phenoxy)-1H-1,2,3-triazole-4-carboxylic Acid] | 1 | 0.1
O=C(O)c1nn[nH]c1Oc1cccc(C#Cc2cccc3cn[nH]c23)c1 [Example 324, 5-(3-(2-(1H-Indazol-7-yl)ethynyl)phenoxy)-1H-1,2,3-triazole-4-carboxylic Acid] | 4 | 1.7
COc1ccc(C#Cc2ccc(Oc3[nH]nnc3C(=O)O)cc2)cn1 [Example 282, 5-(4-(2-(6-Methoxypyridin-3-yl)ethynyl)phenoxy)-1H-1,2,3-triazole-4-carboxylic Acid] | 3 | 0.5
O=C(O)c1nn[nH]c1Oc1cccc(C#CCC2CCCCC2)c1 [Example 346, 5-(3-(3-Cyclohexylprop-1-ynyl)phenoxy)-1H-1,2,3-triazole-4-carboxylic Acid] | 3 | 0.7
O=C(O)c1nn[nH]c1Oc1cccc(C#Cc2nccs2)c1 [Example 342, 5-(3-(2-(Thiazol-2-yl)ethynyl)phenoxy)-1H-1,2,3-triazole-4-carboxylic Acid] | 2 | 0.4
CC#Cc1cccc(Oc2[nH]nnc2C(=O)O)c1 [Example 6, 5-(3-(Prop-1-ynyl)phenoxy)-1H-1,2,3-triazole-4-carboxylic Acid] | 7 | 0.8
CC(C)(C)C#Cc1cccc(Oc2[nH]nnc2C(=O)O)c1 [Example 17, 5-(3-(3,3-Dimethylbut-1-ynyl)phenoxy)-1H-1,2,3-triazole-4-carboxylic Acid] | 42 | 1.3
O=C(O)c1nn[nH]c1Oc1cccc(C#CCC2CCCC2)c1 [Example 344, 5-(3-(3-Cyclopentylprop-1-ynyl)phenoxy)-1H-1,2,3-triazole-4-carboxylic Acid] | 4 | 1.9
CC(C)C#Cc1cccc(Oc2[nH]nnc2C(=O)O)c1 [Example 10, 5-(3-(3-Methylbut-1-ynyl)phenoxy)-1H-1,2,3-triazole-4-carboxylic Acid] | 28 | 1.6
Cc1cccc(C#Cc2ccc(Oc3[nH]nnc3C(=O)O)cc2)n1 [Example 293, 5-(4-(2-(6-Methylpyridin-2-yl)ethynyl)phenoxy)-1H-1,2,3-triazole-4-carboxylic Acid] | 5 | 0.1
COc1ccc(C#Cc2cccc(Oc3[nH]nnc3C(=O)O)c2)cn1 [Example 284, 5-(3-(2-(6-Methoxypyridin-3-yl)ethynyl)phenoxy)-1H-1,2,3-triazole-4-carboxylic Acid] | 5 | 0.2
O=C(O)c1nn[nH]c1Oc1cccc(C#CCc2ccc(F)cc2)c1 [Example 354, 5-(3-(3-(4-Fluorophenyl)prop-1-ynyl)phenoxy)-1H-1,2,3-triazole-4-carboxylic Acid] | 5 | 2.4
O=C(O)c1nn[nH]c1Oc1ccc(C#CC2CC2)cc1 [Example 20, 5-(4-(2-Cyclopropylethynyl)phenoxy)-1H-1,2,3-triazole-4-carboxylic Acid] | 11 | 0.8
O=C(O)c1nn[nH]c1Oc1ccc(C#CC2CCCC2)cc1 [Example 28, 5-(4-(2-Cyclopentylethynyl)phenoxy)-1H-1,2,3-triazole-4-carboxylic Acid] | 18 | 0.3
CCCC#Cc1cccc(Oc2[nH]nnc2C(=O)O)c1 [Example 300, 5-(3-(Pent-1-ynyl)phenoxy)-1H-1,2,3-triazole-4-carboxylic Acid] | 9 | 2.5
O=C(O)c1nn[nH]c1Oc1cccc(C#Cc2ccccc2)c1 [Example 139, 5-(3-(2-Phenylethynyl)phenoxy)-1H-1,2,3-triazole-4-carboxylic Acid] | 10 | 1.1
O=C(O)c1nn[nH]c1Oc1cccc(C#CCC(F)(F)F)c1 [Example 306, 5-(3-(4,4,4-Trifluorobut-1-ynyl)phenoxy)-1H-1,2,3-triazole-4-carboxylic Acid] | 16 | 0.7
O=C(O)c1nn[nH]c1Oc1cccc(C#Cc2cccnc2)c1 [Example 312, 5-(3-(2-(Pyridin-3-yl)ethynyl)phenoxy)-1H-1,2,3-triazole-4-carboxylic Acid] | 3 | 0.2
O=C(O)c1nn[nH]c1Oc1cccc(C#CC2CC2)c1 [Example 21, 5-(3-(2-Cyclopropylethynyl)phenoxy)-1H-1,2,3-triazole-4-carboxylic Acid] | 9 | 2.5
Cc1ccc(C#Cc2cccc(Oc3[nH]nnc3C(=O)O)c2)cn1 [Example 295, 5-(3-(2-(6-Methylpyridin-3-yl)ethynyl)phenoxy)-1H-1,2,3-triazole-4-carboxylic Acid] | 1 | 0.2
O=C(O)c1nn[nH]c1Oc1cccc(C#Cc2ccc3[nH]ncc3c2)c1 [Example 307, 5-(3-(2-(1H-Indazol-5-yl)ethynyl)phenoxy)-1H-1,2,3-triazole-4-carboxylic Acid] | 1 | 0.0
O=C(O)c1nn[nH]c1Oc1cccc(C#CC2CCCC2)c1 [Example 29, 5-(3-(2-Cyclopentylethynyl)phenoxy)-1H-1,2,3-triazole-4-carboxylic Acid] | 10 | 2.5
O=C(O)c1nn[nH]c1Oc1cccc(C#CCC2CCC2)c1 [Example 345, 5-(3-(3-Cyclobutylprop-1-ynyl)phenoxy)-1H-1,2,3-triazole-4-carboxylic Acid] | 8 | 2.6
N#Cc1ccc(C#Cc2cc(Oc3[nH]nnc3C(=O)O)ccc2F)cc1 [Example 268, 4-(3-((4-Cyanophenyl)ethynyl)-4-fluorophenoxy)-1H-1,2,3-triazole-5-carboxylic Acid] | 1 | 0.3
O=C(O)c1nn[nH]c1Oc1cccc(C#CC2CCC2)c1 [Example 25, 5-(3-(2-Cyclobutylethynyl)phenoxy)-1H-1,2,3-triazole-4-carboxylic Acid] | 18 | 2.9
